Test results: US20210400981A1, “ANTIMICROBIAL OZONE COMPOSITIONS AND METHODS OF USE THEREOF” (priority 2018, published 2021)
Each block holds one compound with its values, some of them ahead of it.

Tests used:
[1] = tested on: Staphylococcus aureus subspecies aureus Rosenbach, strain FDA 209; assay: AOAC method (961.02) spray disinfection of glass coupons, 10 min, turbidity (+/-) in Letheen broth; assay type: cell-based; details: for Percent kill / Number− / Number+: 10 min; for Number−: negative coupons; for Number+: positive coupons; for coupons negative: range-finding
Text: A freeze-dried stock of Staphylococcus (Staphylococcus aureus subspecies aureus Rosenbach, strain FDA 209), as specified by the AOAC method (961.02), was obtained from ATCC. After rehydration and growth in appropriate culture medium (BD Tryptic soy broth lot #4335611), both plated stocks and stocks frozen in glycerol were created. Staphylococcus was quantified for absorbance at 600 nm versus colony forming units (CFU) by serially diluting inoculum and reading absorbance followed by plating of dilutions onto agar plates. Prior to aqueous ozone testing, growth medium was inoculated and incubated in a shaker incubator (New Brunswick Scientific, serial #890615130) at 37° C. for 24 hours and then transfer cultured two additional times with a final incubation of 48 hours. Twenty microliters of the resulting inoculum was used to coat glass slides (Fisher), also known as test squares or coupons, with 10^5 to 10^7 cells, as calculated from the standard curve generated from the absorbance qualification data, and allowed to dry in a 37° C. incubator for 40 minutes following ASTM E1153-14. After drying, treated coupons were sequentially treated with 1.5 or 4 ppm aqueous ozone alone, 1.5 or 4 ppm aqueous ozone combined with a predetermined dilution of PAA, or PAA alone, then incubated for 10 minutes at room temperature. Additionally, immediately before and after testing three inoculated untreated coupons were place in labeled 50 ml conical tubes containing 20 ml of Letheen broth, vortexed, pooled, and plated to provide carrier counts. The mean log 10 density (LD) of the carrier counts for S. aureus must be between 5.0 and 6.5 in order for the test to be valid in this method.
Briefly, aqueous ozone was generated using the free standing CCT 1.0 unit (mounted in a kiosk enclosure) at a concentration of 1.5 ppm or 4 ppm. The water source utilized by the CCT 1.0 was clean, cold, softened Omaha municipal tap water. […] Aqueous ozone was sterile collected in a biological safety cabinet before and used immediately. Treatments were applied to the appropriate freshly prepared coupons contained within labeled petri dishes using a sprayer provided by CleanCore.
Following the testing period, coupons were removed from the individual petri dishes and transferred to corresponding labeled 50 ml conical tubes containing 20 ml of Letheen broth. One sterile un-inoculated coupon and one inoculated untreated coupon were also transferred to separate labeled 50 ml conical tubes containing 20 ml of Letheen broth in order to provide sterility and viability controls, respectively. All testing vials were shaken then incubated at 36±1° C. for 48±2 hours, then visually assessed for turbidity(+). Positive sample vials were plated to determine colony morphology similarity to test organism. All test plates were plated with 0.2 ml spread onto 2 replicates using a glass spreader and a Bel-Art inoculating turntable. Results of testing were analyzed for statistical significance in SPSS using a McNemar exact test for dichotomous data, with a significance level of α=0.05.

[2] = Ability of the buffer to accept aqueous ozone (kiosk sensors and instrumentation); assay type: physicochemical; details: buffer at approximate pH 5.5 to 6, ozonated with the CCT 1.0 kiosk
Text: Additionally, not all buffering compounds are suitable or effective for use as additives. […] The MES and ascorbate buffers were unable to accommodate the addition of aqueous ozone, showing no ozone in the resulting solution according to the kiosk sensors and instrumentation.

[3] = cited from earlier work
[4] = tested on: Salmonella enterica; assay: Test coupons coated with Salmonella enterica, CFU reduction versus water; assay type: cell-based; details: 0.05M acetate buffer with or without 1.5 ppm aqueous ozone
[5] = tested on: Klebsiella; assay: Test coupons coated with Klebsiella, CFU reduction versus water; details: acetate buffer with or without 1.5 ppm aqueous ozone
[6] = tested on: S. aureus subspecies aureus Rosenbach, strain FDA 209; assay: ASTM E1153-14 glass coupon test, 5 min treatment, CFU plate counts; assay type: cell-based, Staphylococcus aureus
[7] = humans, after exposure; cited from earlier work
[8] = tested on: Campylobacter jejuni; assay: Antimicrobial spray on inoculated chicken carcasses, rinsate plate counts; assay type: cell-based
Protocol: (§1) Briefly, chicken carcasses (70 whole hen carcasses for 7 treatments and 10 replications) were inoculated with 400 mL of a cocktail containing Salmonella Typhimurium (UK-1), E. coli (J53), and Campylobacter jejuni (3×10^7 CFU/mL) and allowed to adhere for 60 minutes at 4° C. for a final concentration of 10^5-10^6 CFU/g. Chicken carcasses then received no treatment (negative control) or were then treated by spraying (4×5 seconds) with tap water, tap water with 10 ppm ozone, tap water with PAA (50 ppm), tap water with PAA (500 ppm), tap water with 10 ppm ozone and PAA (500 ppm), or tap water with 10 ppm ozone and PAA (50 ppm). Further, the ambient PAA was measured using a PAA specific sensor during treatment. After treatment, chicken carcasses were rinsed in 400 mL of neutralizing buffered peptone water (20.0 g of buffered peptone, 7 g of refined soy lecithin or equivalent, 1.0 g of sodium thiosulfate, 12.5 g of sodium bicarbonate, per 1 liter of deionized water) for 2 minutes with agitation. Subsequently, the rinsate was serially diluted, spread plated on Xylose Lysine Deoxycholate (XLD) and Blood Free Campylobacter Agar (BFCA; modified Charcoal-Cefoperazone-Deoxycholate agar (mCCDA)), and incubated aerobically at 37° C. for 24 hours and microaerophilic at 42° C. for 48 hours, respectively. Log-transformed counts were analyzed using one-way ANOVA in JMP 14.0. Means were separated using Tukey's HSD when P≤0.05.

[9] = tested on: Salmonella Typhimurium (UK-1); assay: as above; assay type: cell-based; details: spray 4x5 seconds; 500 ppm PAA with or without 10 ppm ozone
Protocol: as §1

[10] = Table 16A, 1.5 ppm ozone and/or 15 ppm PAA
[11] = Table 16B, 4 ppm ozone and/or 15 ppm PAA
[12] = Table 16C, 1.5 ppm ozone and/or 10 ppm PAA
[13] = Table 16D, 1.5 ppm ozone and/or 20 ppm PAA, three experiments

ozone in the resulting buffered solution [2]: did accept ozonation
SMILES: O=C(O)C(=O)O [Oxalic acid]
pKa (second value) [3]: 4.40

ozone in the resulting buffered solution [2]: no ozone
SMILES: O=S(=O)(O)CCN1CCOCC1 [MES, 2-(N-morpholino) ethane sulfonic acid]

ozone in the resulting buffered solution [2]: did accept ozonation
SMILES: O=C(O)CC(O)(CC(=O)O)C(=O)O [Citric acid]

Continued, compound first:

SMILES: O=[O+][O-] [aqueous ozone, ozone]
Percent kill [1, 10]: 0.0%
Number− [1, 10]: 0
Number+ [1, 10]: 30
Percent kill [1, 11]: 0.0%
Number− [1, 11]: 0
Number+ [1, 11]: 30
Percent kill [1, 12]: 0.0%
Number− [1, 12]: 0
Number+ [1, 12]: 30
Percent kill [1, 13]: 0.0%
Number− [1, 13]: 0
Number+ [1, 13]: 90

SMILES: O=C1O[C@H]([C@@H](O)CO)C(O)=C1O [Ascorbic acid]
ozone in the resulting buffered solution [2]: no ozone

SMILES: CC(=O)O [Acetic acid]
log reduction of Salmonella CFU versus water [4]: 1 log
log reduction in Klebsiella CFU versus the water control [5]: 1 log
log reduction of S. aureus CFU post treatment, compared to a water control ([6]; 0.05M acetate buffer with or without 1.5 ppm aqueous ozone): less than 1 log
reduction versus water ([6]; acetate buffer alone, no ozone): 66.92%

SMILES: CC(=O)OO [PAA, peracetic acid]
coupons negative ([1]; PAA 10 ppm in sterile water): 3 out of 10 coupons
coupons negative ([1]; PAA 25 ppm in sterile water): 6 out of 10 coupons
coupons negative ([1]; PAA 50 ppm in sterile water): 9 out of 10 coupons
coupons negative ([1]; PAA 100 ppm in sterile water): 9 out of 10 coupons
Percent kill [1, 10]: 76.7%
Number− [1, 10]: 23
Number+ [1, 10]: 7
Percent kill [1, 11]: 73.3%
Number− [1, 11]: 22
Number+ [1, 11]: 8
Percent kill [1, 12]: 6.7%
Number− [1, 12]: 2
Number+ [1, 12]: 28
Percent kill [1, 13]: 87.8%
Number− [1, 13]: 79
Number+ [1, 13]: 11
PAA level that can cause irritation to the upper respiratory tract [7]: 5 ppm
log CFU per gram of C. jejuni on carcasses ([8]; spray 4x5 seconds, 500 ppm PAA with or without 10 ppm ozone): 4.81 log CFU/g
effect on Campylobacter compared to untreated controls ([8]; spray on chicken carcasses, P≤0.05): significantly reduced
log CFU per gram of Salmonella on carcasses [9]: 5.86 log CFU/g
